Experimental data: patent publication US5798381A, “Biologically active bistramides, process for their production and their applications in therapy” (Institut Francais de Recherche Scientifique pour le …, priority 1993, dated 1998)
≈ marks a conversion by molar mass, not a printed value.

Experiments:
[1] = tested on: Plasmodium vinckei petteri; assay: Comparison of monodose and multidose therapeutic schema; type: in vivo, Plasmodium vinckei petteri in SWISS female white mice
Protocol: The object is to monitor the parasitemia on a daily basis and to evaluate the inhibition of the parasitemia according to the therapeutic schema adopted for the treatment. The following are shown: the morphological modifications of the parasite by the parasitic formula, calculation of the parasitic formula is also carried out on smears and allows the evaluation of each stage:ring, young trophozoite, middle trophozoite, old trophozite for 100 red blood corpuscles.
a) after infestation, three batches of five mice are constituted, namely
a so-called monodose batch, for which a single injection of bistramide D (15 mg/kg) is given to the mouse on D0
a so-called multidose batch, where the injection of bistramide D is carried out by administering five doses on D0, D1, D2, D3, D4 respectively (total dose 15 mg/kg)
b) the preparation and reading of the smears is carried out every day for 21 days.
The percentage of parasitemia and the percentage inhibition of the development of the parasite is determined for each batch.

[2] = tested on: NSCLC.N6-L16; assay: Cytotoxicity, 50% inhibition of cell growth, NSCLC-N6; type: cell-based; settings: Homo sapiens; NSCLC.N6-L16; read-out: IC50 (50% inhibition of cell growth)
Protocol: The cytoxicity results are recorded hereafter as the IC50 in μg/ml (concentration corresponding to a 50% inhibition of cell growth) on 6 tumoural lines namely KB, P388, P388/dox (resistant to doxorubicin), B16 and H429 and NSCLC-N6, which are human cells of non-small cell bronchopulmonary carcinoma type.
The determinations were carried out according to the protocol given in Cancer Chemother. Pharmacol. (1991) 28:283-292 by Roussakis et al.

## C/C=C/C(O)CC1CCC(C)C(CC(=O)NCC(O)C(C)C(=O)NCCCC2OC3(CCCC(CCC(C)/C=C(\C)C(C)O)O3)CCC2C)O1 (stereo not drawn) [Bistramide D]
[1]; Monodose (15 mg/kg on D0), D3
  percentage inhibition of the development of the parasite: 51.5%
[1]; Monodose (15 mg/kg on D0), D3, controls 0.33
  parasitemia: 0.16%
[1]; Monodose (15 mg/kg on D0), D4
  percentage inhibition of the development of the parasite: 33.3%
[1]; Monodose (15 mg/kg on D0), D4, controls 1.2
  parasitemia: 0.80%
[1]; Monodose (15 mg/kg on D0), D5
  percentage inhibition of the development of the parasite: 36.3%
[1]; Monodose (15 mg/kg on D0), D5, controls 5.5
  parasitemia: 3.5%
[1]; Monodose (15 mg/kg on D0), D7
  percentage inhibition of the development of the parasite: 0%
[1]; Monodose (15 mg/kg on D0), D7, controls 50
  parasitemia: 64%
[1]; Monodose (15 mg/kg on D0), D8
  percentage inhibition of the development of the parasite: 16.4%
[1]; Monodose (15 mg/kg on D0), D8, controls 67
  parasitemia: 56%
[1]; Monodose (15 mg/kg on D0), D9
  percentage inhibition of the development of the parasite: 12.5%
[1]; Monodose (15 mg/kg on D0), D9, controls 48
  parasitemia: 42%
[1]; Monodose (15 mg/kg on D0), D10
  percentage inhibition of the development of the parasite: 0%
[1]; Monodose (15 mg/kg on D0), D10, controls 1
  parasitemia: 1%
[1]; Monodose, D5, control 3%
  parasitic formula, old trophozoite (OT): 9%
[1]; Monodose, D5, control 7%
  parasitic formula, middle trophozoite (MT): 14%
[1]; Monodose, D5, control 17.5%
  parasitic formula, young trophozoite (YT): 37%
[1]; Monodose, D5, control 72.5%
  parasitic formula, ring stage (R): 40%
[1]; Monodose, D7, control 10%
  parasitic formula, old trophozoite (OT): 6%
[1]; Monodose, D7, control 15%
  parasitic formula, middle trophozoite (MT): 14%
[1]; Monodose, D7, control 17%
  parasitic formula, young trophozoite (YT): 31%
[1]; Monodose, D7, control 58%
  parasitic formula, ring stage (R): 47%
[1]; Multidose, D5, control 3%
  parasitic formula, old trophozoite (OT): 7%
[1]; Multidose, D5, control 7%
  parasitic formula, middle trophozoite (MT): 40%
[1]; Multidose, D5, control 17.5%
  parasitic formula, young trophozoite (YT): 28%
[1]; Multidose, D5, control 72.5%
  parasitic formula, ring stage (R): 25%
[1]; Multidose, D7, control 10%
  parasitic formula, old trophozoite (OT): 93%
[1]; Multidose, D7, control 15%
  parasitic formula, middle trophozoite (MT): 0%
[1]; Multidose, D7, control 17%
  parasitic formula, young trophozoite (YT): 0%
[1]; Multidose, D7, control 58%
  parasitic formula, ring stage (R): 7%
[1]; Multidoses (D0-D4, total 15 mg/kg), D3
  percentage inhibition of the development of the parasite: 63.6%
[1]; Multidoses (D0-D4, total 15 mg/kg), D3, controls 0.33
  parasitemia: 0.12%
[1]; Multidoses (D0-D4, total 15 mg/kg), D4
  percentage inhibition of the development of the parasite: 83.3%
[1]; Multidoses (D0-D4, total 15 mg/kg), D4, controls 1.2
  parasitemia: 0.2%
[1]; Multidoses (D0-D4, total 15 mg/kg), D5
  percentage inhibition of the development of the parasite: 70.9%
[1]; Multidoses (D0-D4, total 15 mg/kg), D5, controls 5.5
  parasitemia: 1.6%
[1]; Multidoses (D0-D4, total 15 mg/kg), D7
  percentage inhibition of the development of the parasite: 85.2%
[1]; Multidoses (D0-D4, total 15 mg/kg), D7, controls 50
  parasitemia: 7.4%
[1]; Multidoses (D0-D4, total 15 mg/kg), D8
  percentage inhibition of the development of the parasite: 0%
[1]; Multidoses (D0-D4, total 15 mg/kg), D8, controls 67
  parasitemia: 74%
[1]; Multidoses (D0-D4, total 15 mg/kg), D9
  percentage inhibition of the development of the parasite: 0%
[1]; Multidoses (D0-D4, total 15 mg/kg), D9, controls 48
  parasitemia: 67%
[1]; Multidoses (D0-D4, total 15 mg/kg), D10
  percentage inhibition of the development of the parasite: 0%
[1]; Multidoses (D0-D4, total 15 mg/kg), D10, controls 1
  parasitemia: 30%
[1]; after last injection on D4, multidose batch
  duration of the action: about 3 days
[1]; from D8
  effect on Plasmodium from D8: apparently being no longer effected
[1]; monodose batch, D4
  parasitemia of monodose batch versus control batch: no difference is observed
[2]
  IC50: 3.43 µg/mL (≈ 4.85 µM)
